SMILES strings stand for the structures.

One test deals with réponse humorale de la souris swiss femelle à la sérumalbumine bovine. Put plainly: Immunoadjuvant activity: humoral antibody response to bovine serum albumin, measured by passive haemagglutination. It counts as in vivo. As to conditions: 100 µg per mouse s.c. with 0,5 mg bovine serum albumin in aqueous solution; primary response day 28, secondary response day 36. Here is the method: L'activité immunoadjuvante a été étudiée en mettant en jeu la réponse humorale de la souris swiss femelle à la sérumalbumine bovine.
Des groupes de huit souris âgées de 2 mois reçoivent par voie sous-cutanée 0,5 mg de sérumalbumine bovine avec ou sans les substances à tester, à raison de 100 µg par souris. Les administrations sont faites en solution aqueuse.
Au jour 28, on effectue des prélèvements du sérum sanguin sur les souris traitées et la réponse primaire en anticorps est déterminée par hémagglutination passive en utilisant des hématies de moutons traitées à la formaline et recouvertes de l'antigène étudié selon la méthode décrite par A. A. HIRATA et M.V. BRANDISSE (5. immunol.100, 541 - 648, 1968). Au jour 30 les souris reçoivent une injection de rappel avec les antigènes seuls (100 µg par souris) et au jour 36 on mesure la réponse secondaire induite par la même technique de mesure .
Les résultats de ces essais figurent dans le tableau 1 qui suit. Ce tableau contient également les résultats mesurés dans les mêmes conditions chez les animaux témoins et chez des animaux qui ont été traités de la même manière avec le MDP à titre de substance de comparaison.
For `CCCC[C@@H](NC(=O)[C@H](C)NC(=O)[C@@H](C)O[C@H]1[C@H](O)[C@@H](CO)OC(O)[C@@H]1NC(C)=O)C(=O)OC` (stereo partly drawn) [compound 6], the activité immunoadjuvante entry is listed as “une activité qui se rapproche sensiblement”. On the same count and under the same terms, then `CCCCOC(=O)[C@@H](CCCC)NC(=O)[C@H](C)NC(=O)[C@@H](C)O[C@H]1[C@H](O)[C@@H](CO)OC(O)[C@@H]1NC(C)=O` (stereo partly drawn) [compound 2], with “une activité qui se rapproche sensiblement”; and `CCCC[C@@H](NC(=O)[C@H](C)NC(=O)[C@@H](C)O[C@H]1[C@H](O)[C@@H](CO)OC(O)[C@@H]1NC(C)=O)C(N)=O` (stereo partly drawn) [compound 1], with “n'a pas témoigné d'une activité spécifique”. On the same count and under the same terms, the result for `CCCCOC(=O)[C@@H](CCCC)NC(=O)[C@H](C)NC(=O)CO[C@H]1[C@H](O)[C@@H](CO)OC(O)[C@@H]1NC(C)=O` (stereo partly drawn) [compound 5] reads “une activité qui se rapproche sensiblement”.

The test system of a further test is globules rouges de mouton. The experiment in a line: Immunosuppression test: high dose given before sheep red blood cells, haemolytic plaques of splenocytes counted (Cunningham method). Type of test: in vivo, souris. The settings on record: 1 mg per mouse 2 days before 10^8 sheep red blood cells; splenocytes taken 4 days after; experiment repeated 3 times. The method, then:
Dans l'expérience qui figure au tableau Ibis et qui a été répétéa 3 fois, le MDP et les autres substances ont été injectés à des souris à une dose 10 ou 20 fois plus élevée que d'habitude (1 mg) 2 jours avant l'injection de 10^8 globules rouges de mouton. Les splénocytes ont été pélevés et mis en culture 4 jours après l'injection de globules rouges de mouton et le nombre de plages hémolytiques dosées selon la méthode de Cunningham.
Take `CCCCOC(=O)[C@@H](CCC(N)=O)NC(=O)[C@H](C)NC(=O)[C@@H](C)O[C@H]1[C@H](O)[C@@H](CO)OC(O)[C@@H]1NC(C)=O` (stereo partly drawn) [murabutide]: the “inhibition de la production d'anticorps (nombre de plages hémolytiques)” value is reported as “inhibe totalement la production d'anticorps”. As to `CC(=O)N[C@H]1C(O)O[C@H](CO)[C@@H](O)[C@@H]1O[C@H](C)C(=O)N[C@@H](C)C(=O)N[C@H](CCC(=O)O)C(N)=O` (stereo partly drawn) [MDP, N-acétyl-muramyl-L-alanyl-D-isoglutamine], the “inhibition de la production d'anticorps (nombre de plages hémolytiques)” value is “inhibe totalement la production d'anticorps”.

The record behind these values is patent publication EP0201420A1, “2-(2-Acetamido-2-deoxy-3-O-D-glucopyranosyl)-alkanoyl-aminoacyl-nor leucin glycopeptides or derivatives of these glycopeptides, and immunoadjuvant compositions containing them” (ANVAR Agence Nationale de Valorisation de la Recherche, priority 1985, dated 1986).
